Patent US6548511B1, “Insecticidal/acaricidal agents” (Sagami Chemical Research Center, priority 1997, dated 2003)

How the values were obtained:
common cutworm larvae = test: Insecticidal effect on common cutworm larvae; type: in vivo; settings: 500 ppm, wettable powder, cabbage leaf disc soaked, 3rd instar larvae, 25° C., 5 days
Procedure: A disc of cabbage leaf (6 cm in diameter) was cut out and soaked for 1 minute in a water-diluted solution of the insecticide of the present invention (wettable powder) produced in accordance with the method of Formulation Example 1. After the soaking, the leaf disc was air-dried and set in a plastic cup (7 cm in inner diameter), and 5 common cutworm larvae of 3rd instar were released therein (one concentration, two repetition). The thus released larvae were kept in a constant temperature chamber at 25° C., mortality and agony of the larvae were examined 5 days thereafter, and insecticidal ratio (%) was calculated by defining the larva in agony as ½ dead larvae.

diamondback moth larvae = test: Insecticidal effect on diamondback moth larvae; type: in vivo; settings: 500 ppm, wettable powder, cabbage leaf disc soaked, 3rd instar larvae, 4 days after release
Procedure: A disc of cabbage leaf (6 cm in diameter) was cut out and soaked for 1 minute in a water-diluted solution of the insecticide of the present invention (wettable powder) produced in accordance with the method of Formulation Example 1. After the soaking, the disc was air-dried and set in a plastic cup (7 cm in inner diameter), and 5 diamondback moth larvae of 3rd instar were released therein (one concentration, two repetition). After 4 days of the release of larvae, mortality and agony of the larvae were examined, and insecticidal ratio (%) was calculated by defining the larvae in agony as ½ dead larvae.

[1] = tested on: brown rice planthopper larvae; test: Insecticidal effect on brown rice planthopper larvae; type: in vivo; settings: 500 ppm, emulsifiable concentrate sprayed on rice seedling, 4th instar larvae, 5 days after treatment
Procedure: A sprouted rice seedling was set in a glass cylinder (3 cm in inner diameter×17 cm in length), and 5 brown rice planthopper larvae of 4th instar were released therein. A water-diluted solution (0.5 ml) of the insecticide of the present invention (emulsifiable concentrate) produced in accordance with the method of Formulation Example 3 was applied to the just described glass cylinder (one concentration, two repetition) using a sprayer (manufactured by Mizuho Rika). After 5 days of the treatment, mortality and agony of the larvae were examined, and insecticidal ratio (%) was calculated by defining the larva in agony as ½ dead larvae.

green peach aphid larvae = test: Insecticidal effect on green peach aphid larvae; type: in vivo; settings: 500 ppm, emulsifiable concentrate, radish leaf soaked, 25° C., 4th day after treatment
Procedure: A petiole part of a radish leaf was put into a screw bottle (capacity: 10 ml) filled with water, and 5 to 6 per one leaf of green peach aphid imagoes were inoculated. After the inoculation, the resulting bottle was put into a glass cylinder (3.5 cm in diameter and 15 cm in height, equipped with a mesh cover), and the green peach aphid imagoes were allowed to propagate in a constant temperature chamber at 25° C. for 3 days. After removal of the green peach aphid imagoes from the radish leaf, the resulting leaf was soaked (about 5 seconds) in a water-diluted solution of the insecticide (emulsifiable concentrate) of the present invention and then returned into the glass cylinder (one concentration, two repetition). The cylinder was kept in the constant temperature chamber of 25° C., and the number of aphid individuals on the radish leaf was examined on the 4th day after the treatment to calculate the insecticidal ratio (%) based on the result.

[2] = tested on: two-spotted spider mite female imagoes; test: Acaricidal effect on two-spotted spider mite imagoes; type: in vivo; settings: 500 ppm, wettable powder sprayed on kidney bean leaf disc, 24 hours after treatment
Procedure: A total of 10 two-spotted spider mite female imagoes were released on a disc cut out from a kidney bean leaf (3 cm in diameter). The acaricide of the present invention (wettable powder) produced in accordance with the method of Formulation Example 1 was diluted with water to a predetermined concentration, and the solution (3.5 ml) was applied on the just described cut leaf (one concentration, two repetition) using a rotary sprayer (manufactured by Mizuho Rika). After 24 hours of the treatment, mortality of the imagoes was examined to calculate acaricidal ratio (%).

[3] = tested on: two-spotted spider mite eggs; test: Acaricidal effect on two-spotted spider mite eggs; type: in vivo; settings: 500 ppm, wettable powder sprayed on kidney bean leaf disc, egg-killing ratio 8 days after treatment
Procedure: A total of 5 two-spotted spider mite female imagoes were released on a disc cut out from a kidney bean leaf (3 cm in diameter). The thus released female imagoes were allowed to lay eggs on the cut leaf for 20 hours and then removed. The acaricide of the present invention (wettable powder) produced in accordance with the method of Formulation Example 1 was diluted with water to a predetermined concentration, and the solution (3.5 ml) was applied on the just described disc (one concentration, two repetition) using a rotary sprayer (manufactured by Mizuho Rika). After 8 days of the treatment, the number of unhatched eggs and the number of hatched imagoes were examined to calculate egg-killing ratio (%).

[4] = tested on: adzuki bean weevil imagoes; test: Insecticidal effect on adzuki bean weevil imagoes; type: in vivo; settings: 500 ppm, emulsifiable concentrate sprayed, 25° C., 4 days after treatment

Compound	melting point [°C]	Insecticidal ratio (%) (common cutworm larvae)	other results
CCn1c(Nc2ccc(C(F)(F)F)cc2C(F)(F)F)nc(C(F)(F)F)c(Cl)c1=O [Compound No. 34, 2-{2,4-bis(trifluoromethyl)phenyl}amino-5-chloro-3-ethyl-6-trifluoromethyl-4(3H)-pyrimidinone]	124		
CCn1c(Nc2cc(Cl)ccc2Cl)nc(C(F)(F)F)cc1=O	167 to 168		
Cn1c(Nc2cc(C(F)(F)F)cc(C(F)(F)F)c2)nc(C(F)(F)F)cc1=O [compound 69, 2-{3,5-bis(trifluoromethyl)phenyl}amino-3-methyl-6-trifluoromethyl-4(3H)-pyrimidinone]		100	Insecticidal ratio (%) (diamondback moth larvae): 100%
Cn1c(Nc2cc(C(F)(F)F)ccc2Cl)nc(C(F)(F)F)cc1=O [Compound No. 20, 2-(2-chloro-5-trifluoromethylphenyl)amino-3-methyl-6-trifluoromethyl-4(3H)-pyrimidinone]		100	Insecticidal ratio (%) (diamondback moth larvae): 100%
Cn1c(Nc2cc(C(F)(F)F)ccc2C(F)(F)F)nc(C(F)(F)F)cc1=O [Compound No. 46, 2-{2,5-bis(trifluoromethyl)phenyl}amino-3-methyl-6-trifluoromethyl-4(3H)-pyrimidinone]		100	Insecticidal ratio (%) [1]: 100%; Insecticidal ratio (%) (green peach aphid larvae): 100%; Acaricidal ratio (%) imagoes [2]: 100%; Insecticidal ratio (%) (diamondback moth larvae): 100%; Acaricidal ratio (%) eggs [3]: 100%; Insecticidal ratio (%) [4]: 100%
CC(C)Cn1c(Nc2cc(C(F)(F)F)ccc2C(F)(F)F)nc(C(F)(F)F)cc1=O [Compound No. 56, 2-{2,5-bis(trifluoromethyl)phenyl}amino-3-isobutyl-6-trifluoromethyl-4(3H)-pyrimidinone]		100	Acaricidal ratio (%) imagoes [2]: 100%; Insecticidal ratio (%) (diamondback moth larvae): 100%; Acaricidal ratio (%) eggs [3]: 100%; Insecticidal ratio (%) [4]: 100%
CCCCn1c(Nc2cc(C(F)(F)F)ccc2Cl)nc(C(F)(F)F)cc1=O [Compound No. 22]			Acaricidal ratio (%) imagoes [2]: 100%; Acaricidal ratio (%) eggs [3]: 100%
CC(C)Cn1c(Nc2cc(C(F)(F)F)ccc2Cl)nc(C(F)(F)F)cc1=O [compound 23, 2-(2-chloro-5-trifluoromethylphenyl)amino-3-isobutyl-6-trifluoromethyl-4(3H)-pyrimidinone]		100	

Further lines, with some results ahead:

melting point [°C]	Compound	Insecticidal ratio (%) (common cutworm larvae)	other results
133 to 135	CCC(C)n1c(Nc2cc(C(F)(F)F)ccc2C(F)(F)F)nc(C(F)(F)F)c(Cl)c1=O (stereo not shown) [Compound No. 59, 2-{2,5-bis(trifluoromethyl)phenyl}amino-3-sec-butyl-5-chloro-6-trifluoromethyl-4(3H)-pyrimidinone]		
124 to 126	CCCn1c(Nc2cc(C(F)(F)F)ccc2C(F)(F)F)nc(C(F)(F)F)c(Cl)c1=O [Compound No. 51, 2-{2,5-bis(trifluoromethyl)phenyl}amino-5-chloro-3-propyl-6-trifluoromethyl-4(3H)-pyrimidinone]		
116 to 118	C=CCn1c(Nc2cc(C(F)(F)F)ccc2C(F)(F)F)nc(C(F)(F)F)cc1=O [Compound No. 66, 3-allyl-2-{2,5-bis(trifluoromethyl)phenyl}amino-6-trifluoromethyl-4(3H)pyrimidinone]		
154 to 156	O=c1cc(C(F)(F)F)nc(Nc2cc(C(F)(F)F)ccc2C(F)(F)F)n1C1CCCCC1 [Compound No. 64, 2-{2,5-bis(trifluoromethyl)phenyl}amino-3-cyclohexyl-6-trifluoromethyl-4(3H)-pyrimidinone]		
165 to 167	CCC(C)n1c(Nc2cc(C(F)(F)F)ccc2C(F)(F)F)nc(C(F)(F)F)cc1=O (stereo not shown) [Compound No. 58, 2-{2,5-bis(trifluoromethyl)phenyl}amino-3-sec-butyl-6-trifluoromethyl-4(3H)-pyrimidinone]		
173 to 175	CCn1c(Nc2cc(C(F)(F)F)ccc2C(F)(F)F)nc(C(F)(F)F)cc1=O [Compound No. 47, 2-{2,5-bis(trifluoromethyl)phenyl}amino-3-ethyl-6-trifluoromethyl-4(3H)-pyrimidinone]		
181 to 183	O=c1c(Cl)c(C(F)(F)F)nc(Nc2cc(C(F)(F)F)ccc2C(F)(F)F)n1C1CCCCC1 [Compound No. 65, 2-{2,5-bis(trifluoromethyl)phenyl}amino-5-chloro-3-cyclohexyl-6-trifluoromethyl-4(3H)-pyrimidinone]		
